Series [1] in a line: Parallel artificial membrane permeability assay (PAMPA), BBB passive diffusion. The series is classed as in vitro ADME. Particulars: pH 7.4, 4 hours; for % R (compound retention of the phospholipid membrane), PAMPA / % T (percentage of transport), PAMPA: 200 μM; for Papp at 4 h, 200 μM: pig, PAMPA, room temperature, read-out: Effective permeability Pe. The protocol: Parallel artificial membrane permeability assay (PAMPA) described in Kansy M et al., J. Med. Chem. 1998; 41(7):1007-10 was used to determine the capacity of compounds to cross the Blood-Brain Barrier (BBB) by passive diffusion (Di L et al., Eur. J. Med. Chem. 2003; 38(3):223-32). The effective permeability (Pe) of the compounds was measured at an initial concentration of 200 μM. The buffer solution was prepared from a commercial concentrated one following the manufacturer's instructions. pH was adjusted to 7.4 using a 0.5 M NaOH solution. A stock solution of new compound was prepared in DMSO and diluted with buffer solution to a final 200 μM concentration (0.5% DMSO content). The PAMPA sandwich was separated and each donor well was filled with 200 μL of the compound solution. The acceptor plate was placed into the donor plate, ensuring that the underside of the membrane was in contact with buffer. 4 μL of the mixture of phospholipids (20 mg/mL) in dodecane was added to the filter of each well, and 200 μL of buffer solution was added to the each acceptor well. The plate was covered and incubated at room temperature in a saturated humidity atmosphere for 4 hours under orbital agitation at 100 rpm. After 4 hours, the contents of the acceptor and donor compartments were analyzed by HPLC: 150 μL of each well from the donor plate and 150 μL of each well from the acceptor plate were transferred to HPLC vials, injecting each sample into a reverse-phase C18 column (150 mm×4.6 mm×5 μm, 100 Å) (100 μL/injection from the acceptor wells, 10 μL/injection from the donor wells and for t0 references). Transport was also confirmed by MALDI-TOF spectrometry.
The phospholipid mixture used was a porcine polar brain lipid extract, provided by Avanti polar lipids, with the following composition: 12.6% phosphatidylcholine (PC), 33.1% phosphatidylethanolamine (PE), 18.5% phosphatidylserine (PS), 4.1% phosphatidylinositol (PI), 0.8% phosphatidic acid and 30.9% of other compounds.
The effective permeability (Pe) after 4 hours was calculated using equation 2, the percentage of transport (T %) was calculated using equation 3 and the compound retention (R %) of the phospholipid membrane using equation 4:
[formula] [formula] [formula] wherein: • t is time (h) • CA(t) is the compound concentration in the acceptor well at time t, CD(t) is the compound concentration in donor well at time t • and CD(t0) is the compound concentration in the donor well at t0.

Series [2] in a line: Microsomal stability (rat). It is filed as in vitro ADME. The note with it: Sprague-Dawley, pooled liver microsomes, pH 7.4; rat liver microsomes 0.5 mg/mL, 1 μM compound, 37° C., NADPH regenerating system. The protocol:
The stability of the compounds in rat (Sprague-Dawley) pooled liver microsomes (catalog number 452501) was investigated according to the instructions provided by the vendor (BD Bioscience). A stock solution (500 μM) of the compound to be tested was prepared in DMSO. Two μL of the compounds were incubated at 1 μM final concentration in a mixture of: • 713 μL of H2O • 200 μL of 0.5 M potassium phosphate (pH 7.4) • 50 μL of NADPH regenerating system solution A (BD Bioscience, catalog number 451220) • 10 μL of NADPH regenerating system solution B (BD Bioscience, catalog number 451200)
The resulting mixture was warmed to 37° C. for 5 min. After which, 25 μL of liver microsomes were added at a final concentration of 0.5 mg/mL. The mixture was incubated at 37° C. with orbital agitation (100 rpm). At selected time points, 100 μL aliquots were extracted and mixed with 100 μL of acetonitrile. The obtained precipitate was shake in a vortex for 1 minute. Samples were kept at 4° C. for 30 min, after which, samples were centrifuged at 20,000×g at 4° C. for 30 min. The supernatant was filtered out and subsequently analysed by UPLC-MS. All stability tests were performed in duplicates.

Series [3] can be described thus: PK in mice after intravenous bolus. It is filed as in vivo. Particulars: male, Swiss Albino, mouse, plasma, 1 mg/kg intravenous bolus; for Vd: read-out: Vss. The protocol: The pharmacokinetics of the compounds following intravenous bolus administration was conducted in male Swiss Albino mice. The study was conducted in accordance with the guidelines of the Institutional Animal Ethics Committee (IAEC) and in accordance with the requirements of Committee for the Purpose of Control and Supervision of Experiments on Animals (CPCSEA), India.
Study was conducted in 12 mice per compound using sparse sampling design (n=3/time point) to produce composite profile. The compounds were dissolved in 2% Twee80® in saline (0.9 NaCl) at a concentration of 0.5 mg/mL. Mice were administered a single dose of 1 mg/kg of the compound solution by intravenous bolus through lateral tail vein using 1 mL BD syringe guided with 26G needle at a dose volume of 2 mL/kg.
Blood samples were collected (n=3 per time point) at 0.083, 0.25, 0.5, 1, 2, 4, 6, 8, 24 and 48 h post-dose. At each time point, 120 μL of blood was collected by retro orbital plexus puncture and transferred into a labeled microfuge tube containing 200 mM K2EDTA solution (20 μL per mL of blood). The blood samples were centrifuged at 5000×g for 5 min at 4±2° C. Plasma samples were stored below −60° C. until bioanalysis.
Plasma samples were analyzed using a LC-MS/MS method with LLOQ of 1.06 ng/mL. Pharmacokinetic parameters in plasma were calculated using the non-compartmental analysis tool of the validated Phoenix WinNonlin® software (version 6.3). The area under the concentration time curve (AUClast) was calculated by linear trapezoidal rule. Peak plasma concentration (Cmax) and time to reach the peak plasma concentration (Tmax) were the observed values. Clearance (CL) and volume of distribution (Vss) were predicted values.

A word on the half-life: it is the time needed for the level to fall by half in the phase considered. A high value points to slow loss. In general, AUC(0-t) refers to exposure summed from dosing to a finite time, without extrapolation to infinity. Low readings indicate low exposure, high ones high exposure. As usually defined, the clearance is the rate of elimination divided by the concentration. Low values mean inefficient removal, high ones efficient removal.

As to `COc1cc(C(=O)N2CC(F)(F)C[C@H]2C(=O)N2CCC[C@H]2C#N)cc(OC)c1OCc1ccccc1` [Comp Ex. 3, (S)-1-((2S)-1-(4-(benzyloxy)-3,5-dimethoxybenzoyl)-4,4-difluoropyrrolidine-2-carbonyl)pyrrolidine-2-carbonitrile], in series [1], the “% R (compound retention of the phospholipid membrane), PAMPA” value amounted to 10.93%; the “% T (percentage of transport), PAMPA” value was 29.92%; the Papp at 4 h, 200 μM stood at 22.1 ×10⁻⁶ cm/s. Moreover, in series [2], the half-life at 1 μM was below 5 min. Moreover, in series [3], the AUC(0-t) came out at 131 ng·h/mL, the clearance stood at 126 mL/min/kg and the Vd worked out at 0.64 L/kg.
On to `N#C[C@@H]1CCCN1C(=O)[C@@H]1CC(F)(F)CN1C(=O)c1ccc(OCc2ccccc2)c(F)c1` [Comp Ex. 4, (S)-1-((S)-1-(4-(benzyloxy)-3-fluorobenzoyl)-4,4-difluoropyrrolidine-2-carbonyl) pyrrolidine-2-carbonitrile], for which the “% T (percentage of transport), PAMPA” value in series [1] came to 10.43%. The compound further had a half-life at 1 μM in series [2] below 5 min. Besides, in series [3], the AUC(0-t) worked out at 22.7 ng·h/mL, the clearance is 697 mL/min/kg and the Vd came to 9.06 L/kg.
As to `N#C[C@@H]1CCCN1C(=O)[C@@H]1C[C@@H](F)CN1C(=O)c1cc(F)c(OCc2ccccc2)c(F)c1` [Example 1, (S)-1-((2S,4R)-1-(4-(benzyloxy)-3,5-difluorobenzoyl)-4-fluoropyrrolidine-2-carbonyl)pyrrolidine-2-carbonitrile], in series [1], the “% R (compound retention of the phospholipid membrane), PAMPA” value is listed as 24%; the “% T (percentage of transport), PAMPA” value is listed as 18.1%; the Papp at 4 h, 200 μM was 4.7 ×10⁻⁶ cm/s. Further, the half-life at 1 μM in series [2] was 12 min. In series [3], the AUC(0-t) was determined as 127 ng·h/mL, the clearance came to 99.6 mL/min/kg and the Vd came out at 1.19 L/kg.

The values above are taken from patent publication US12459891B2, “1-[1-(4-benzyloxy-3,5-difluoro-benzoyl)-4-fluoro-pyrrolidine-2-carbonyl]-pyrrolidine-2-carbonitrile” (ACCURE THERAPEUTICS, S.L., priority 2020, dated 2025).
